# Test results from patent publication US9375457B2, “Composition comprising Rhizoma coptidis, Cortex phellodendri and Fructus gardeniae and for treating neurodegenerative diseases” (Hong Kong Baptist University, priority 2013, dated 2016).
# How the values were obtained:
# [1] = rat, in vivo; cited from earlier work
# [2] = system: Aβ plaques in TgCRND8 mice; assay: Immunohistochemistry of Aβ plaque burden in TgCRND8 mice; type: in vivo; settings: oral, 25 mg/kg per day, 3 months, 4G8 immunostaining, p<0.05
# From the text: All animal handling experiments were approved by the Hong Kong Baptist University Committee on the Use of Human and Animal Subjects in Teaching and Research (HASC, approval #: 12-13/0030). TgCRND8 mice expressing human APP with Swedish (K670N/M671L) and Indiana (V717F) mutations were used to evaluate the effect of baicalein on Aβ. Heterozygous TgCRND8 mice on a C57BL/6J background were used to breed a colony of experimental animals. […]
# Immunohistochemistry and image analysis of Aβ plaques is performed on coronal brain sections from TgCRND8 mice treated with baicalein or tap water as described previously by Durairajan et al. 2012. […] Images are obtained with a Nikon fluorescent inverted microscope with digital Nikon camera and analyzed by Image J software. Aβ plaque burden is calculated as the area occupied by the Aβ plaques as a percentage of total area of the brain sections.
# [3] = system: APP processing (sAPPs, F1-APP, pAPPThr668, CTFs) in brain of TgCRND8 mice; assay: Western blot of APP metabolic products in brain fractions of TgCRND8 mice; type: in vivo; settings: oral, 25 mg/kg per day
# From the text: All animal handling experiments were approved by the Hong Kong Baptist University Committee on the Use of Human and Animal Subjects in Teaching and Research (HASC, approval #: 12-13/0030). TgCRND8 mice expressing human APP with Swedish (K670N/M671L) and Indiana (V717F) mutations were used to evaluate the effect of baicalein on Aβ. Heterozygous TgCRND8 mice on a C57BL/6J background were used to breed a colony of experimental animals. The TgCRND8 mouse is an early onset model of AD with visible Aβ deposits in the brains of the animals starting from 3 months of age as described in Chishti M A, Yang D S, Janus C, Phinney A L, Home P, Pearson J, Strome R, Zuker N, Loukides J, French J, Turner S, Lozza G, Grilli M, Kunicki S, Morissette C, Paquette J, Gervais F, Bergeron C, Fraser P E, Carlson G A, George-Hyslop P S, Westaway D. (2001) Early-onset amyloid deposition and cognitive deficits in transgenic mice expressing a double mutant form of amyloid precursor protein 695. J Biol Chem 276: 21562-21570. The animals are housed in a controlled environment under a 12/12 hours light/dark cycle. They are allowed free access to food and water. The oral administration of baicalein (25 mg/kg/d) is commenced at 2 months of age and ended at 5 months before being killed. A single dose (25 mg/kg/d) of baicalein is tested in animal study as no difference in baicalein levels in the brain between doses of 25 and 50 mg/kg/d is found in our pilot study. Control mice orally gavaged with tap water only for the same administration period. At the conclusion of the treatment period, mice were deeply anesthetized by chloral hydrate and perfused with phosphate buffered saline (PBS). The brains were then dissected and processed for Aβ immunostaining
# To detect differences in the level of APP metabolic products among treatment groups, the levels of Aβ, F1-APP, pAPPThr668, CTFs, sAPPα and sAPPβ-sw are measured after a 3-step sequential extraction using Tris buffered saline (TBS) (pH 7.4), 1% Triton X-100/TBS (TBSX) and formic acid (FA) methods as described in Youmans K L, Leung S, Zhang J, Maus E, Baysac K, Bu G, Vassar R, Yu C, LaDu M J. (2011) Amyloid-β42 alters apolipoprotein E solubility in brains of mice with five familial AD mutations. J Neurosci Methods 196: 51-59. All extraction buffers also contained protease and phosphatase inhibitor cocktail (Roche Diagnostics, Basel, Switzerland). Snap frozen tissue is homogenized in 15 volumes (w/v) of TBS homogenization buffer and centrifuged at 100,000×g for 1 h at 4° C. using a Type 70 Ti rotor in an Optima™ L-80XP Ultracentrifuge (Beckman Coulter, Fla., USA). The TBS-soluble fraction is aliquoted, frozen in liquid nitrogen and stored at −80° C. The pellets are resuspended in 15 volumes of TBSX and kept on ice for 30 minutes, followed by a second centrifugation at 100,000×g for 1 hour at 4° C. The TBSX soluble fraction is aliquoted, frozen and stored as for the TBS fraction. The TBSX-insoluble pellet is resuspended in 2 mL of 70% FA and centrifuged at 100,000×g at 4° C. for 1 hour. The FA extracts are neutralized by the addition of 20 volumes of 1 M Tris pH 11, aliquoted and stored at −80° C. Total protein content in TBS- and TBSX-extracts is determined via BCA assay. Total protein in FA-extracts is determined by Bradford Protein Microassay (Bio-Rad, CA, USA). […]
smiles,measurement,setting,value
O=c1cc(-c2ccccc2)oc2cc(O)c(O)c(O)c12 [baicalein],brain bioavailability of baicalein (greater than berberine),[1],1 to 10 µM
same,increase of area occupied by Aβ deposits in cortex and hippocampus,[2],44%
same,increase in sAPPα signal intensity in brain,[3]; TBS fraction,44%
same,increase in sAPPβ-sw signal intensity in brain,[3]; TBS fraction,35%
same,increase in level of CTFs in brain,[3]; TBSX fraction,40%
same,increase in level of F1-APP in brain,[3]; TBSX fraction,30%
same,increase in level of pAPP in brain,[3]; TBSX fraction,41%
